Measured values reported in patent US8575158B2, “1-phenyl-substituted heterocyclyl derivatives and their use as prostaglandin D2 receptor modulators” (Actelion Pharmaceuticals Ltd., priority 2010, dated 2013).

Biological target: T1, hCRTH2 receptor (Homo sapiens, UniProt Q9Y5Y4)
T1 construct: expressed in transfected cells; host or cells: HEK293
T1 sequence (Q9Y5Y4 1-395): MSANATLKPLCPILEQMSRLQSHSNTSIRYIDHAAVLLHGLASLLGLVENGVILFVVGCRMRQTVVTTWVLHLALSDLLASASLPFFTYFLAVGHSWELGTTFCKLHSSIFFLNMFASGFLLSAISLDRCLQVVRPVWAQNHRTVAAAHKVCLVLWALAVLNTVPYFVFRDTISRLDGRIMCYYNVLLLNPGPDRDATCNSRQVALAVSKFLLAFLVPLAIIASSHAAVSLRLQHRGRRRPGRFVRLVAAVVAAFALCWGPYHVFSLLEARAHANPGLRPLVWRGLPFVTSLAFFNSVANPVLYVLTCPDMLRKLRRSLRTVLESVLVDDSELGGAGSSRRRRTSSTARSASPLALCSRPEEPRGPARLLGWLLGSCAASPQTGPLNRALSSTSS
Assay: Radioligand displacement assay (3H-PGD2) on hCRTH2 receptor membranes
Format: binding
Conditions: antagonistic activity, 3H-PGD2 radioligand displacement, HEK293-hCRTH2 membranes

SMILES	IC50
COc1cc(OC)c2ccn(CCC(=O)N3CCc4ccccc4C3c3cc(Cl)ccc3OCC(=O)O)c2n1 (racemic) [Example 376]	32.5 nM
COc1cc(OC)c2ccn(CCC(=O)N3CCc4ccccc4C3c3cc(Cl)ccc3OCC(=O)O)c2c1 (racemic) [Example 377]	9.71 nM
O=C(O)COc1ccc(Cl)cc1C1c2ccccc2CCN1C(=O)CCn1ccc2ccccc21 (racemic) [Example 378]	11.6 nM
O=C(O)COc1ccc(Cl)cc1C1c2ccccc2CCN1C(=O)CCn1ccc2cc(F)ccc21 (racemic) [Example 379]	16.8 nM
O=C(O)COc1ccc(Cl)cc1C1c2ccccc2CCN1C(=O)CCn1ccc2cccc(Cl)c21 (racemic) [Example 380]	24.3 nM
O=C(O)COc1ccc(Cl)cc1C1c2ccccc2CCN1C(=O)CCn1ccc2ncccc21 (racemic) [Example 381]	31.6 nM
COc1cccc2c1ccn2CCC(=O)N1CCc2ccccc2C1c1cc(Cl)ccc1OCC(=O)O (racemic) [Example 382]	20.7 nM
O=C(O)COc1ccc(Cl)cc1C1c2ccccc2CCN1C(=O)CCn1nc(Cl)c2ccccc21 (racemic) [Example 383]	8.5 nM
Cc1ccc2ccn(CCC(=O)N3CCc4ccccc4C3c3cc(Cl)ccc3OCC(=O)O)c2c1 (racemic) [Example 384]	14.8 nM
O=C(O)COc1ccc(Cl)cc1C1c2ccccc2CCN1C(=O)CCn1ccc2cc(Cl)ccc21 (racemic) [Example 385]	51.2 nM
O=C(O)COc1ccc(Cl)cc1C1c2ccccc2CCN1C(=O)CCn1ccc2ccc(Cl)cc21 (racemic) [Example 386]	11.6 nM
O=C(O)COc1ccc(Cl)cc1C1c2ccccc2CCN1C(=O)CCn1ccc2c(F)cccc21 (racemic) [Example 387]	36.7 nM
O=C(O)COc1ccc(Cl)cc1C1c2ccccc2CCN1C(=O)CCn1ccc2ccc(F)cc21 (racemic) [Example 388]	25.7 nM
Cc1c(C)n(CCC(=O)N2CCc3ccccc3C2c2cc(Cl)ccc2OCC(=O)O)c2ccccc12 (racemic) [Example 389]	70.4 nM
COc1ccc2ccn(CCC(=O)N3CCc4ccccc4C3c3cc(Cl)ccc3OCC(=O)O)c2c1 (racemic) [Example 390]	7.52 nM
O=C(O)COc1ccc(Cl)cc1C1c2ccccc2CCN1C(=O)CCn1ccc2ncc(Cl)nc21 (racemic) [Example 404]	42.6 nM
O=C(O)COc1ccc(Cl)cc1C1c2ccccc2CCN1C(=O)CCn1c(C(F)(F)F)cc2ccccc21 (racemic) [Example 405]	451 nM
COc1ccccc1OCC(=O)N1CCc2ccccc2C1c1cc(Cl)ccc1OCC(=O)O (racemic) [Example 406]	26.8 nM
O=C(O)COc1ccc(Cl)cc1C1c2ccccc2CCN1C(=O)COc1ccc(F)cc1 (racemic) [Example 407]	34.9 nM
Cc1cccc(CCC(=O)N2CCc3ccccc3C2c2cc(Cl)ccc2OCC(=O)O)n1 (racemic) [Example 408]	177 nM
O=C(O)COc1ccc(Cl)cc1C1c2ccccc2CCN1C(=O)COc1ccccc1 (racemic) [Example 409]	74 nM
O=C(O)COc1ccc(Cl)cc1C1c2ccccc2CCN1C(=O)COc1ccccc1F (racemic) [Example 410]	70.7 nM
O=C(O)COc1ccc(Cl)cc1C1c2ccccc2CCN1C(=O)COc1cccc2cccnc12 (racemic) [Example 411]	25.7 nM
O=C(O)COc1ccc(Cl)cc1C1c2ccccc2CCN1C(=O)COc1ccc(Cl)cc1 (racemic) [Example 412]	40.2 nM
O=C(O)COc1ccc(Cl)cc1C1c2ccccc2CCN1C(=O)COc1cccc(Cl)c1 (racemic) [Example 413]	70.5 nM
Cc1ccc(OCC(=O)N2CCc3ccccc3C2c2cc(Cl)ccc2OCC(=O)O)cc1 (racemic) [Example 414]	126 nM
COc1ccc(OCC(=O)N2CCc3ccccc3C2c2cc(Cl)ccc2OCC(=O)O)cc1 (racemic) [Example 415]	210 nM
O=C(O)COc1ccc(Cl)cc1C1c2ccccc2CCN1C(=O)COc1cccnc1 (racemic) [Example 416]	215 nM
